PubChem BioAssay AID1963841 (Molecular Pharmacology Branch, DTP, NCI, 2024)

Test system: 439559-082-T-J2-PDC spheroid viability
Test: Anticancer human tumor 439559-082-T-J2-PDC patient-derived colon adenocarcinoma cell line growth inhibition [POLQ]
Conditions: spheroids with HUVEC and MSC; for IC50: curve of first compound; for viability, T/C: stronger effect = lower value
How it was run: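 PDC + HUVEC + MSC complex spheroids; POLQ inhibitors ± partner drugs; top conc. at/near clinical Cmax, else 10 microM (SN-38 1 microM), half-log dilutions; 37 degrees C, 5% CO2.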

[1] = second compound 0.0316 µM, first compound 0.0316 µM
[2] = second compound 0.0316 µM, first compound 0.1 µM
[3] = second compound 0.0316 µM, first compound 0.316 µM
[4] = second compound 0.0316 µM, first compound 1 µM
[5] = second compound 0.0316 µM, first compound 3.16 µM
[6] = second compound 0.0316 µM, first compound 10 µM
[7] = second compound 0.1 µM, first compound 0.0316 µM
[8] = second compound 0.1 µM, first compound 0.1 µM
[9] = second compound 0.1 µM, first compound 0.316 µM
[10] = second compound 0.1 µM, first compound 1 µM
[11] = second compound 0.1 µM, first compound 3.16 µM
[12] = second compound 0.1 µM, first compound 10 µM
[13] = second compound 0.316 µM, first compound 0.0316 µM
[14] = second compound 0.316 µM, first compound 0.1 µM
[15] = second compound 0.316 µM, first compound 0.316 µM
[16] = second compound 0.316 µM, first compound 1 µM
[17] = second compound 0.316 µM, first compound 3.16 µM
[18] = second compound 0.316 µM, first compound 10 µM
[19] = second compound 1 µM, first compound 0.0316 µM
[20] = second compound 1 µM, first compound 0.1 µM
[21] = second compound 1 µM, first compound 0.316 µM
[22] = second compound 1 µM, first compound 1 µM
[23] = second compound 1 µM, first compound 3.16 µM
[24] = second compound 1 µM, first compound 10 µM
[25] = second compound 3.16 µM, first compound 0.0316 µM
[26] = second compound 3.16 µM, first compound 0.1 µM
[27] = second compound 3.16 µM, first compound 0.316 µM
[28] = second compound 3.16 µM, first compound 1 µM
[29] = second compound 3.16 µM, first compound 3.16 µM
[30] = second compound 3.16 µM, first compound 10 µM
[31] = second compound 10 µM, first compound 0.0316 µM
[32] = second compound 10 µM, first compound 0.1 µM
[33] = second compound 10 µM, first compound 0.316 µM
[34] = second compound 10 µM, first compound 1 µM
[35] = second compound 10 µM, first compound 3.16 µM
[36] = second compound 10 µM, first compound 10 µM
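Note: spheroids exposed to compounds for seven days before readout.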
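Throughout, for viability, T/C: 100% = DMSO vehicle control viability.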

CC1COCCN1c1cc(-c2ccnn2C)c2ccnc(-c3ccn[nH]3)c2n1 (centres undefined) + Nc1ccc(C#CCN(C(=O)Cc2ncc(C(F)(F)F)cc2C(F)(F)F)c2ccc(F)cc2)nn1
IC50 (second compound 0.0316 µM): 0.475 µM | IC50 (second compound 0.1 µM): > 10 µM | IC50 (second compound 0.316 µM): > 10 µM | IC50 (second compound 1 µM): 0.981 µM | IC50 (second compound 3.16 µM): 0.313 µM | IC50 (second compound 10 µM): 0.293 µM | viability, T/C [1]: 105% | viability, T/C [2]: 82.9% | viability, T/C [3]: 50.7% | viability, T/C [4]: 41.2% | viability, T/C [5]: 57% | viability, T/C [6]: 49.1% | viability, T/C [7]: 105% | viability, T/C [8]: 97.1% | viability, T/C [9]: 57.5% | viability, T/C [10]: 48.9% | viability, T/C [11]: 55.8% | viability, T/C [12]: 50.3% | viability, T/C [13]: 105% | viability, T/C [14]: 89.5% | viability, T/C [15]: 52.9% | viability, T/C [16]: 49.9% | viability, T/C [17]: 57.1% | viability, T/C [18]: 52.3% | viability, T/C [19]: 108% | viability, T/C [20]: 84.7% | viability, T/C [21]: 60.1% | viability, T/C [22]: 42.4% | viability, T/C [23]: 56.8% | viability, T/C [24]: 46% | viability, T/C [25]: 111% | viability, T/C [26]: 78.1% | viability, T/C [27]: 50.1% | viability, T/C [28]: 43.1% | viability, T/C [29]: 52.2% | viability, T/C [30]: 47.9% | viability, T/C [31]: 93.3% | viability, T/C [32]: 74.3% | viability, T/C [33]: 47.4% | viability, T/C [34]: 48.7% | viability, T/C [35]: 54.2% | viability, T/C [36]: 42.8%

COc1ccc([C@@H](O)c2cc(-c3ncnc4cc(N5CCOCC5)ccc34)c(F)cc2Cl)nn1 + Nc1ccc(C#CCN(C(=O)Cc2ncc(C(F)(F)F)cc2C(F)(F)F)c2ccc(F)cc2)nn1
IC50 (second compound 0.0316 µM): > 10 µM | IC50 (second compound 0.1 µM): > 10 µM | IC50 (second compound 0.316 µM): > 10 µM | IC50 (second compound 1 µM): > 10 µM | IC50 (second compound 3.16 µM): > 10 µM | IC50 (second compound 10 µM): > 10 µM | viability, T/C [1]: 105% | viability, T/C [2]: 86% | viability, T/C [3]: 89.1% | viability, T/C [4]: 89.4% | viability, T/C [5]: 84% | viability, T/C [6]: 87.5% | viability, T/C [7]: 102% | viability, T/C [8]: 93.2% | viability, T/C [9]: 92.7% | viability, T/C [10]: 88.1% | viability, T/C [11]: 78% | viability, T/C [12]: 87.3% | viability, T/C [13]: 119% | viability, T/C [14]: 105% | viability, T/C [15]: 104% | viability, T/C [16]: 79.5% | viability, T/C [17]: 88.9% | viability, T/C [18]: 81% | viability, T/C [19]: 95% | viability, T/C [20]: 106% | viability, T/C [21]: 85.2% | viability, T/C [22]: 83.7% | viability, T/C [23]: 86.1% | viability, T/C [24]: 86.3% | viability, T/C [25]: 90.1% | viability, T/C [26]: 107% | viability, T/C [27]: 90.7% | viability, T/C [28]: 80.2% | viability, T/C [29]: 83.7% | viability, T/C [30]: 87.8% | viability, T/C [31]: 94.1% | viability, T/C [32]: 90% | viability, T/C [33]: 90.1% | viability, T/C [34]: 99.7% | viability, T/C [35]: 81.8% | viability, T/C [36]: 77.4%
